This note sets out measurements from US9296698B2, “Amino heteroaryl compounds as beta-secretase modulators and methods of use” (Amgen Inc., priority 2009, dated 2016).

Like-named read-outs stand apart in the source and are kept apart here.

Test [1] concerns Aβ40 in conditioned medium of cells stably expressing Amyloid Precursor Protein (APP). Kind of test: In vitro BACE cell-based assay (HEK cell assay), Aβ40 sandwich ELISA. The conditions noted are these: IC50 range symbols, Table 1, Aβ40, 24 h incubation, read-out: HEK cell assay. The procedure: In Vitro BACE Cell-Based Assay:
The cell-based assay measures inhibition or reduction of Aβ40 in conditioned medium of test compound treated cells expressing amyloid precursor protein.
Cells stably expressing Amyloid Precursor Protein (APP) were plated at a density of 40K cells/well in 96 well plates (Costar). The cells were cultivated for 24 hours at 37° C. and 5% CO2 in DMEM supplemented with 10% FBS. The test compounds were then added to cells in 10-point dose response concentrations with the starting concentration being either 100 μM or 10 μM. The compounds were diluted from stock solutions in DMSO and the final DMSO concentration of the test compounds on cells was 0.1%. After 24 h of incubation with the test compounds the supernatant conditioned media was collected and the Aβ 40 levels were determined using a sandwich ELISA. The IC50 of the compound was calculated from the percent of control or percent inhibition of Aβ 40 as a function of the concentration of the test compound.
The sandwich ELISA to detect Aβ 40 was performed in 96 well microtiter plates, which were pre-treated with goat anti-rabbit IgG (Pierce). The capture and detecting antibody pair that were used to detect Aβ 40 from cell supernatants were affinity purified pAb40 (Biosource) and biotinylated 6E10 (Signet Labs Inc.), respectively. The optimal concentration for the pAb40 antibody was 3 μg/ml in Superblock/TBS (Pierce) that was supplemented with 0.05% Tween 20 (Sigma).
Cellular supernatants were incubated with the capture antibody for 3 h at 4° C., followed by 3 wash steps in TBS-tween (0.05%). The detecting antibody incubation was for 2 h at 4° C., again followed by the wash steps as described previously. The final readout of the ELISA is Time-Resolved Fluorescence (counts per minute) using Delfia reagents Streptavidin-Europium and Enhancement solutions (Perkin Elmer) and the Victor 2 multilabel counter (Perkin Elmer).
For orientation: In an ELISA, binding on a coated surface is turned into a signal by an enzyme label.

Test [2] deals with BACE 1 (Beta Secretase enzyme) (Homo sapiens, UniProt P56817). The experiment in a line: In vitro enzymatic BACE FRET assay. The test is classed as biochemical. The procedure:
In Vitro Enzymatic BACE FRET (Fluorescence Resonance Energy Transfer) Assay (Enzyme Assay Data in Table 1)
The assay buffer used in this screen is 0.05 M acetate, pH 4.2, 10% DMSO final, 100 uM genapol (which is a nonionic detergent, below its Critical Micelle Concentration). […] The assay is effectively started by the addition of FRET substrate (50 nM) and the combination is incubated for one hour. The FRET assay is terminated with by addition of Tris buffer, which raises the pH to neutrality, and the fluorescence is determined. The FRET substrate is a peptide with commercially available fluorophore and quencher, on opposite sides of the BACE cleavage site.

[3] abbreviates: IC50 range symbols, Table 1, read-out: BACE 1 FRET assay.

BACE 1 (Beta Secretase enzyme), sequence (P56817 46-501, species assumed): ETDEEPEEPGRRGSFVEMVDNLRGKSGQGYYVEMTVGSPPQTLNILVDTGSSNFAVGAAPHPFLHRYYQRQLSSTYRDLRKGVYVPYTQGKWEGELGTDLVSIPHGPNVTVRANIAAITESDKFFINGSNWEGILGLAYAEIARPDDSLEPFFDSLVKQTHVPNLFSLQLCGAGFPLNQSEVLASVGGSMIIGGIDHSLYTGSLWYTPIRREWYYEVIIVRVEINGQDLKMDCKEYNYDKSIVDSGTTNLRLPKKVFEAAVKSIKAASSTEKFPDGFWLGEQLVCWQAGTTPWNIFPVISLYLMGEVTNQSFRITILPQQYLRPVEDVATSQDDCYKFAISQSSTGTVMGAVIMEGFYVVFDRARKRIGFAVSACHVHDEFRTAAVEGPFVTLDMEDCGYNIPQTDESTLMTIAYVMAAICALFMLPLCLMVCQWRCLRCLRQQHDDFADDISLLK

On to `Cc1ccccc1-c1ccc2nc(N)c(CCC(=O)NC3CCCCC3)cc2c1` [Example 13, 3-(2-amino-6-o-tolylquinolin-3-yl)-N-cyclohexylpropanamide], for which the IC50 in test [1] (Homo sapiens, HEK293, 24 h) fell in the range of 0.5 to 1 µM. Turning to `Cc1ccccc1-c1cc2cc(CC(C)C(=O)NCc3ccccc3)c(N)nc2cn1` (stereo not drawn) [Example 136, 3-(2-amino-6-o-tolyl-1,7-naphthyridin-3-yl)-N-benzyl-2-methylpropanamide], the IC50 was less than 0.5 µM in test [2] (setting [3]); less than 0.05 µM in test [2] (bound stated, read-out: IC50 value in the FRET BACE enzyme assay); 1 to 5 µM in test [1] (Homo sapiens, HEK293, 24 h). On to `Cc1cccnc1-c1ccc2nc(N)c(CC(C)C(=O)N[C@H](C)C(F)(F)F)cc2c1` (stereo partly drawn) [Example 114, 3-(2-amino-6-(3-methylpyridin-2-yl)quinolin-3-yl)-2-methyl-N-((R)-1,1,1-trifluoropropan-2-yl)propanamide], for which the IC50 lay within 1 to 5 µM in test [2] (setting [3]) and 1 to 5 µM in test [1] (Homo sapiens, HEK293, 24 h). For “3-(3-amino-7-o-tolylnaphthalen-2-yl)-N-(2-methoxybutyl)propanamide [Example 26]”, the IC50 in test [2] (setting [3]) is less than 0.5 µM; in test [1] it was 1 to 5 µM.

For `Cc1ccccc1-c1ccc2nc(N)c(CC(C)C(=O)NCC3CCCCC3)cc2c1` (stereo not drawn) [Example 22, 3-(2-amino-6-o-tolylquinolin-3-yl)-N-(cyclohexylmethyl)-2-methylpropanamide], the IC50 in test [1] (Homo sapiens, HEK293, 24 h) was less than 0.5 µM.

Regarding `Cc1ccccc1-c1ccc2nc(N)c(CCC(=O)NCC(C)(C)O)cc2c1` [Example 144, 3-(2-amino-6-(2-methylphenyl)-3-quinolinyl)-N-(2-hydroxy-2-methylpropyl)propanamide], the IC50 in test [2] (setting [3]) fell in the range of 1 to 5 µM; in test [1] (Homo sapiens, HEK293, 24 h) it was 1 to 5 µM.

“N-(2-fluorobenzyl)-3-(3-amino-7-o-tolylnaphthalen-2-yl)propanamide [Example 27]”: the IC50 was less than 0.5 µM in test [2] (setting [3]) and 1 to 5 µM in test [1]. For `Cc1cccnc1-c1ccc2nc(N)c(CC(C)C(=O)NCC3CCC(F)(F)CC3)cc2c1` (stereo not drawn) [Example 117, 3-(2-amino-6-(3-methylpyridin-2-yl)quinolin-3-yl)-N-((4,4-difluorocyclohexyl)methyl)-2-methylpropanamide], the IC50 in test [2] (setting [3]) is less than 0.5 µM; in test [1] (Homo sapiens, HEK293, 24 h), 0.5 to 1 µM. `CC(Cc1cc2cc(-c3ccccc3Cl)ccc2nc1N)C(=O)NC1CCOC2(CCC2)C1` (stereo not drawn) [Example 171, 3-(2-amino-6-(2-chlorophenyl)-3-quinolinyl)-2-methyl-N-(5-oxaspiro[3,5]non-8-yl)propanamide]: the IC50 was less than 0.5 µM in test [2] (setting [3]) and less than 0.5 µM in test [1] (Homo sapiens, HEK293, 24 h). For the molecule `CNC(=O)C(C)Cc1cc2cc(-c3ccccc3C(C)=O)ccc2nc1N` (stereo not drawn) [Example 154, 3-(6-(2-acetylphenyl)-2-aminoquinolin-3-yl)-N,2-dimethylpropanamide], the IC50 in test [2] (setting [3]) was greater than 5 µM; in test [1] (Homo sapiens, HEK293, 24 h) it was greater than 5 µM.

Take `CC(Cc1cc2cc(C3CC3C)ccc2nc1N)C(=O)NCCC(C)(C)C` (stereo not drawn) [Example 7, 3-(2-amino-6-(2-methylcyclopropyl)quinolin-3-yl)-N-(3,3-dimethylbutyl)-2-methylpropanamide]: the IC50 in test [2] (setting [3]) is less than 0.5 µM; in test [1] (Homo sapiens, HEK293, 24 h), 1 to 5 µM. The like results for `Cc1ccccc1-c1ccc2nc(N)c(CC(C)C(=O)NCC3CCCOC3)cc2c1` (stereo not drawn) [Example 92, 3-(2-amino-6-o-tolylquinolin-3-yl)-2-methyl-N-((tetrahydro-2H-pyran-3-yl)methyl)propanamide] were, in that order, less than 0.5 µM and less than 0.5 µM. As for `Nc1nc2ccc(-c3ccccc3F)cc2cc1CCC(=O)NCC1CCCCC1` [Example 42, 3-(2-amino-6-(2-fluorophenyl)quinolin-3-yl)-N-(cyclohexylmethyl)propanamide], the IC50 in test [2] (setting [3]) is less than 0.5 µM; in test [1] (Homo sapiens, HEK293, 24 h), greater than 5 µM. `CC(Cc1cc2cc(-c3cccc(Cl)c3Cl)ccc2nc1N)C(=O)NC1CCOC2(CCC2)C1` (stereo not drawn) [Example 161, 3-(2-amino-6-(2,3-dichlorophenyl)quinolin-3-yl)-2-methyl-N-(5-oxaspiro[3.5]nonan-8-yl)propanamide]: the IC50 is less than 0.5 µM in test [2] (setting [3]) and less than 0.5 µM in test [1] (Homo sapiens, HEK293, 24 h).

As for `CC(Cc1cc2cc(-c3ncccc3Cl)ccc2nc1N)C(=O)NC[C@@H]1CCCCO1` (stereo partly drawn) [Example 82, 3-(2-amino-6-(3-chloropyridin-2-yl)quinolin-3-yl)-2-methyl-N-(((S)-tetrahydro-2H-pyran-2-yl)methyl)propanamide], the IC50 in test [2] (setting [3]) was in the range of 0.5 to 1 µM; in test [1] (Homo sapiens, HEK293, 24 h) it was 1 to 5 µM. Regarding `Cc1ccccc1-c1ccc2nc(N)c(CCC(=O)NCC3CCCCO3)cc2c1` (stereo not drawn) [Example 40, 3-(2-amino-6-o-tolylquinolin-3-yl)-N-((tetrahydro-2H-pyran-2-yl)methyl)propanamide], the IC50 in test [2] (setting [3]) is less than 0.5 µM; in test [1] (Homo sapiens, HEK293, 24 h), 1 to 5 µM. For the molecule `Cc1cccnc1-c1ccc2nc(N)c(C[C@@H](C)C(=O)NCCC(C)(C)C)cc2c1` [Example 126, (R)-3-(2-amino-6-(3-methylpyridin-2-yl)quinolin-3-yl)-N-(3,3-dimethylbutyl)-2-methylpropanamide], the IC50 in test [1] (Homo sapiens, HEK293, 24 h) is less than 0.5 µM. `C[C@H](Cc1cc2cc(-c3ncccc3Cl)ccc2nc1N)C(=O)NCCC(C)(C)C` [Example 128, (R)-3-(2-amino-6-(3-chloropyridin-2-yl)quinolin-3-yl)-N-(3,3-dimethylbutyl)-2-methylpropanamide]: the IC50 in test [1] (Homo sapiens, HEK293, 24 h) is less than 0.5 µM. On to `Cc1ccccc1-c1ccc2nc(N)c(C[C@@H](C)C(=O)NC3CCOC(C)(C)C3)cc2c1` (stereo partly drawn) [Example 164, (2R)-3-(2-amino-6-o-tolylquinolin-3-yl)-N-(2,2-dimethyltetrahydro-2H-pyran-4-yl)-2-methylpropanamide], for which the IC50 in test [1] (Homo sapiens, HEK293, 24 h) is less than 0.5 µM. For `CCC(Cc1cc2cc(-c3ccccc3C)ccc2nc1N)C(=O)NCC1CCCCC1` (stereo not drawn) [Example 60, 2-((2-amino-6-o-tolylquinolin-3-yl)methyl)-N-(cyclohexylmethyl)butanamide], the IC50 in test [1] (Homo sapiens, HEK293, 24 h) was greater than 5 µM. As for `Cc1ccccc1-c1ccc2nc(N)c(CC(C(=O)NCC3CCCCC3)C(C)C)cc2c1` (stereo not drawn) [Example 66, 2-((2-amino-6-o-tolylquinolin-3-yl)methyl)-N-(cyclohexylmethyl)-3-methylbutanamide], the IC50 in test [1] (Homo sapiens, HEK293, 24 h) is 1 to 5 µM. On to `Cc1ccccc1-c1ccc2nc(N)c(CC(C)C(=O)NCc3cncs3)cc2c1` (stereo not drawn) [Example 93, 3-(2-amino-6-o-tolylquinolin-3-yl)-2-methyl-N-(thiazol-5-ylmethyl)propanamide], for which the IC50 in test [1] (Homo sapiens, HEK293, 24 h) was less than 0.5 µM.

For `CC(=O)c1ccccc1-c1ccc2nc(N)c(CC(C)C(=O)NCCC(C)(C)C)cc2c1` (stereo not drawn) [Example 156, 3-(6-(2-acetylphenyl)-2-aminoquinolin-3-yl)-N-(3,3-dimethylbutyl)-2-methylpropanamide], the IC50 in test [1] (Homo sapiens, HEK293, 24 h) was less than 0.5 µM. Same read-out and setting: the result for `Cc1ccccc1-c1ccc2nc(N)c(C[C@@H](C)C(=O)NCC3CCOCC3)cc2c1` [Example 87, (R)-3-(2-amino-6-o-tolylquinolin-3-yl)-2-methyl-N-((tetrahydro-2H-pyran-4-yl)methyl)propanamide] reads less than 0.5 µM; that for `Cc1ccccc1-c1ccc2nc(N)c(CC(C)C(=O)NCc3ccccc3)cc2c1` (stereo not drawn) [Example 52, 3-(2-amino-6-o-tolylquinolin-3-yl)-N-benzyl-2-methylpropanamide], 1 to 5 µM; that for `Cc1ccccc1-c1ccc2nc(N)c(CC(C)C(=O)NCCC(C)(C)C)cc2c1` (stereo not drawn) [Example 90, 3-(2-amino-6-o-tolylquinolin-3-yl)-N-(3,3-dimethylbutyl)-2-methylpropanamide], less than 0.5 µM.

Turning to `Cc1ccccc1-c1ccc2nc(N)c(CCC(=O)N(C)C3CCCCC3)cc2c1` [Example 1, 3-(2-amino-6-o-tolylquinolin-3-yl)-N-cyclohexyl-N-methylpropanamide], the IC50 in test [1] (Homo sapiens, HEK293, 24 h) is less than 0.5 µM.

In the case of `Cc1ccccc1-c1ccc2nc(N)c(CCC(=O)NCC3CCCCC3)cc2c1` [Example 14, 3-(2-amino-6-o-tolylquinolin-3-yl)-N-(cyclohexylmethyl)propanamide], the IC50 in test [1] (Homo sapiens, HEK293, 24 h) is 0.5 to 1 µM. In the case of `Cc1cccnc1-c1ccc2nc(N)c(CC(C)C(=O)NCCC(C)(C)C)cc2c1` (stereo not drawn) [Example 5, 3-(2-amino-6-(3-methylpyridin-2-yl)quinolin-3-yl)-N-(3,3-dimethylbutyl)-2-methylpropanamide], in test [1] (Homo sapiens, HEK293, 24 h), the IC50 fell in the range of 0.5 to 1 µM. As for `Cc1ccccc1-c1ccc2nc(N)c(C[C@@H](C)C(=O)NCc3cnccn3)cc2c1` [Example 80, (R)-3-(2-amino-6-o-tolylquinolin-3-yl)-2-methyl-N-(pyrazin-2-ylmethyl)propanamide], the IC50 in test [1] (Homo sapiens, HEK293, 24 h) is less than 0.5 µM.
